{"source": "patent US7803757B2", "about": "“Peptides based on the sequence of human lactoferrin and their use” (PharmaSurgics in Sweden AB, priority 1998, dated 2010)", "key": {"E. coli O14 [1]": {"system": "E. coli O14", "test": "bactericidal and growth inhibitory activity, E. coli O14 (Example 9)", "type": "cell-based", "protocol": "E. coli O14 was incubated as described above in the presence of the peptides during 2 hours. The bactericidal activity was measured in the same way as described above.\nThe inhibition of growth was measured spectrophotometrically after incubation during 20 hours."}, "Candida albicans [2]": {"system": "Candida albicans", "test": "fungicidal activity against Candida albicans strains (Example 4)", "type": "cell-based", "protocol": "(§1) In this example the fungicidal activity of the peptides according to the invention was tested and compared to the fungicidal activity of human lactoferrin. Different concentrations of hLF, peptide 3 and peptide 4 were incubated with different strains of Candida albicans and Candida krusei during 1-2 hours at 37° C. in 0.05 mM KCl at pH 7.0 at two different occasions—experiment I and II, respectively. After incubation samples were taken for plating on Saboroud plates."}, "E. coli O6K5 [3]": {"system": "E. coli O6K5", "test": "bactericidal activity, incubation with E. coli O6K5 (Example 3, exp. II)", "type": "cell-based", "conditions": "Exp. II: 100% killing, E. coli O6K5, 1/100 BHI, 2 hours", "protocol": "(§2) Human lactoferrin (hLF), peptide 3, and peptide 4, respectively, were incubated with two different strains of E. coli, E. coli O14 (experiment I) and O6K5 (experiment II), in diluted growth medium ( 1/100 BHI—brain heart infusion) for 2 hours. The peptides were also incubated with E. coli O14 in 0.05 mM KCl (pH 7) without any growth medium (experiment III). Different concentrations of the peptides were tested.\n(§3) After the incubation, samples were taken for bacterial plating. Serial dilutions of five- and fourfold steps were used in experiments I and II, respectively, and of twofold steps in experiment III.\n(§4) The concentrations of the different peptides required for killing 100% (experiments I and II) or 90% (experiment III) of the bacteria are given in table 2."}, "Candida albicans [4]": {"system": "Candida albicans", "test": "fungicidal activity against Candida albicans, comparison with EP-A-0 629 347 peptides (Example 7)", "type": "cell-based", "conditions": "C. albicans, I (tenfold steps), 5 · 10^3 yeast cells per ml", "protocol": "In this example an in vitro test was performed to compare the bactericidal and fungicidal activity of the peptides according to the invention with peptides described in EP-A-0 629 347. The peptide according to the invention used was peptide 4, and the peptides according to EP-A-0 629 347 called Morinaga 10, Morinaga 11, Morinaga 12, and Morinaga 13.\nThe peptides were incubated with E. coli O14 and Candida albicans. Two concentrations of C. albicans yeast cells were tested, 5·10^6 and 5·10^3 per ml. Different concentrations of the peptides were tested.\nAfter the incubation, samples were taken for bacterial plating. Serial dilutions of tenfold steps were used in the experiments marked with I in table 5 and of twofold steps in the experiments marked with II."}, "E. coli O14 [5]": {"system": "E. coli O14", "test": "bactericidal activity, incubation with E. coli O14 (Example 3, exp. I and III)", "type": "cell-based", "protocol": "as §2, §3, §4"}, "C. albicans": {"system": "C. albicans", "test": "concentration for killing of 99% of C. albicans at different pH (Example 13, FIG. 2)", "type": "cell-based", "conditions": "FIG. 2, different pH", "text": "In this example the concentrations needed of three peptides according to the invention for killing of 99% of C. albicans at different pH was compared to a reference peptide. The peptides according to the invention were peptide 2 (linear), peptide 3 (cyclic), peptide 4 (linear), peptide 5 (cyclic) and peptide 7 (lactam bridged), all capped. The reference peptides used were an uncapped cyclic form and an uncapped linear form of a Morinaga peptide, Morinaga 24 and 25. The results are illustrated in FIG. 2."}, "[6]": {"system": "LPS-induced IL-6 response in a monocytic cell line (THP-1)", "test": "inhibition of LPS-induced IL-6 response in THP-1 cells (Example 5)", "type": "cell-based", "conditions": "agent added 30 minutes after LPS", "protocol": "In this example an in vitro test was performed to study the anti-inflammatory activity of the peptides according to the invention. More precisely, the inhibitory effect of the peptides according to the invention on the LPS-induced IL-6 response in a monocytic cell line (THP-1) was studied and compared to the effect of human lactoferrin by use of the method described by I. Mattsby-Baltzer et al., Pediatr. Res. 40:257-262, 1996. The IL-6 response in the THP-1 cells was induced by addition of LPS. hLF, peptide 3 and peptide 4, respectively, were added 30 minutes after LPS."}, "E. coli O6K5 [7]": {"system": "E. coli O6K5", "test": "urinary tract infection in mice, bacteria (CFU) in kidney (Example 6)", "type": "in vivo", "conditions": "500 μg per mouse orally 30 minutes after instillation, 24 hours", "protocol": "E. coli O6K5 was instilled into the urinary bladder of mice. 30 minutes after instillation the different agents specified in table 5 were administered orally in an amount of 500 μg per mouse and 24 hours after instillation the number of bacteria (CFU) present in bladder and in kidney was determined.\nThe control group consisted of 10 animals in experiment I and of 23 animals in experiment II. The animals in the control groups were given tap water instead of peptide or hLF."}, "Candida krusei": {"system": "Candida krusei", "test": "fungicidal activity against Candida krusei strains (Example 4)", "type": "cell-based", "conditions": "Exp. I", "protocol": "as §1"}}, "note": "Peptide text beside a SMILES is read from it. * marks the point of attachment. Acm = CC(=O)NC*"}
{"smiles": "CC[C@H](C)[C@H](NC(=O)[C@H](CSCNC(C)=O)NC(=O)[C@H](CO)NC(=O)[C@@H](NC(=O)[C@@H]1CCCN1C(=O)[C@@H]1CCCN1C(=O)CNC(=O)[C@H](CCCNC(=N)N)NC(=O)[C@@H](NC(=O)[C@H](CCCCN)NC(=O)[C@H](CCCNC(=N)N)NC(=O)[C@H](CCSC)NC(=O)[C@H](CC(N)=O)NC(=O)[C@H](CCCNC(=N)N)NC(=O)[C@H](CCC(N)=O)NC(=O)[C@H](Cc1c[nH]c2ccccc12)NC(=O)[C@H](CCC(N)=O)NC(=O)[C@H](Cc1ccccc1)NC(=O)[C@H](CSCNC(C)=O)NC(=O)[C@H](CCCCN)NC(=O)[C@@H](NC(C)=O)[C@@H](C)O)C(C)C)C(C)C)C(=O)N[C@@H](CCCCN)C(=O)N[C@@H](CCCNC(=N)N)C(N)=O", "note": "[Peptide 4] (Ac-TKC(Acm)FQWQRNMRKVRGPPVSC(Acm)IKR-NH2)", "values": [{"measurement": "Concentration of agent for 100% killing", "setting": "E. coli O14 [1]; E. coli O14, 2 hours", "value": 12.5, "unit": "µg/mL"}, {"measurement": "Concentration of agent for inhibition of growth", "setting": "E. coli O14 [1]; E. coli O14, spectrophotometrically after 20 hours", "value": 3.1, "unit": "µg/mL"}, {"measurement": "ratio hLF/pep. (concentration for 99% killing)", "setting": "Candida albicans [2]; Exp. I, C. albicans ATCC 64549", "value": ">40"}, {"measurement": "Concentration of agent for 99% killing", "setting": "Candida albicans [2]; Exp. I, C. albicans ATCC 64549, 0.05 mM KCl pH 7.0, 1-2 hours 37° C.", "value": 1.25, "unit": "µg/mL"}, {"measurement": "ratio hLF/pep. (concentration for 99% killing)", "setting": "Candida albicans [2]; Exp. I, C. albicans CCUG 90028", "value": ">40"}, {"measurement": "Concentration of agent for 99% killing", "setting": "Candida albicans [2]; Exp. I, C. albicans CCUG 90028, 0.05 mM KCl pH 7.0", "value": 1.25, "unit": "µg/mL"}, {"measurement": "ratio hLF/pep. (concentration for 99% killing)", "setting": "Candida albicans [2]; Exp. II, C. albicans ATCC 64549", "value": ">133"}, {"measurement": "Concentration of agent for 99% killing", "setting": "Candida albicans [2]; Exp. II, C. albicans ATCC 64549, 0.05 mM KCl pH 7.0", "value": 1.5, "unit": "µg/mL"}, {"measurement": "ratio hLF/pep. (concentration for 99% killing)", "setting": "Candida albicans [2]; Exp. II, C. albicans CCUG 599", "value": ">133"}, {"measurement": "Concentration of agent for 99% killing", "setting": "Candida albicans [2]; Exp. II, C. albicans CCUG 599, 0.05 mM KCl pH 7.0", "value": 1.5, "unit": "µg/mL"}, {"measurement": "ratio hLF/pep. (concentration for 99% killing)", "setting": "Candida albicans [2]; Exp. II, C. albicans CCUG 1759", "value": ">133"}, {"measurement": "Concentration of agent for 99% killing", "setting": "Candida albicans [2]; Exp. II, C. albicans CCUG 1759, 0.05 mM KCl pH 7.0", "value": 1.5, "unit": "µg/mL"}, {"measurement": "Concentration of agent for 100%/90% killing", "setting": "E. coli O6K5 [3]", "value": "≦7.8 μg/ml"}, {"measurement": "Concentration of agent for 100% killing", "setting": "Candida albicans [4]", "value": 10, "unit": "µg/mL"}, {"measurement": "Concentration of agent for 100%/90% killing", "setting": "E. coli O14 [5]; Exp. I: 100% killing, E. coli O14, 1/100 BHI, 2 hours", "value": 4.4, "unit": "µg/mL"}, {"measurement": "Concentration of agent for 100%/90% killing", "setting": "E. coli O14 [5]; Exp. III: 90% killing, E. coli O14, 0.05 mM KCl (pH 7) without growth medium", "value": 3.2, "unit": "µg/mL"}, {"measurement": "concentration needed for killing of 99% of C. albicans, compared with the capped cyclic peptides (in words)", "setting": "C. albicans", "value": "better effects than the capped cyclic peptides"}, {"measurement": "% inhibition of LPS response", "setting": "[6]; IL-6 response in THP-1 cells", "value": 39, "unit": "%"}, {"measurement": "inhibitory activity on the LPS-induced IL-6 response (in words)", "setting": "[6]; THP-1 cells", "value": "significant inhibition"}, {"measurement": "Statistical comparison of treatment group with control group of the number of bacteria, CFU, present in kidney (p, Mann-Whitney)", "setting": "E. coli O6K5 [7]; Exp I, mouse strain CH/HeN", "value": "p = 0.0137"}, {"measurement": "Statistical comparison of treatment group with control group of the number of bacteria, CFU, present in kidney (p, Mann-Whitney)", "setting": "E. coli O6K5 [7]; Exp II, mouse strain C3H/Tif", "value": "p = 0.0102"}, {"measurement": "ratio hLF/pep. (concentration for 99% killing)", "setting": "Candida krusei; C. krusei CCUG 969", "value": 10}, {"measurement": "Concentration of agent for 99% killing", "setting": "Candida krusei; C. krusei CCUG 969, 0.05 mM KCl pH 7.0", "value": 2.5, "unit": "µg/mL"}, {"measurement": "ratio hLF/pep. (concentration for 99% killing)", "setting": "Candida krusei; C. krusei CCUG 35849", "value": 10}, {"measurement": "Concentration of agent for 99% killing", "setting": "Candida krusei; C. krusei CCUG 35849, 0.05 mM KCl pH 7.0", "value": 1.25, "unit": "µg/mL"}]}
